# Reference: patent US7608619B2, “Substituted oxazole compounds with analgesic activity” (Gruenenthal GmbH, priority 2005, dated 2009)
# Molecular target: T1, human μ-opiate receptor (Homo sapiens, UniProt P35372)
# T1 construct: purchased Nen company, Zaventem, Belgium RB-HOM; host or cells: CHO-K1 cells (membrane preparation)
# Assay: Affinity for the human μ-opiate receptor ([3H]-naloxone displacement, SPA, CHO-K1 membrane preparation)
# Conditions: test substance 1 μmole/l; displacement of 1 nmole/l [3H]-naloxone; percentage inhibition of the specific binding; read-out: μ-opioid receptor, % inhibition [1 μM]
# Outline: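 [3H]-naloxone (1 nmol/l) displacement by SPA with WGA beads, using membranes of CHO-K1 cells expressing the receptor, in 50 mmol/l Tris-HCl with 0.05% azide and 0.06% BSA; 90 min at room temperature. Non-specific binding defined with 25 μmol/l naloxone. Value is % inhibition of specific binding at 1 μmol/l test compound.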
# T1 sequence (P35372 whole entry): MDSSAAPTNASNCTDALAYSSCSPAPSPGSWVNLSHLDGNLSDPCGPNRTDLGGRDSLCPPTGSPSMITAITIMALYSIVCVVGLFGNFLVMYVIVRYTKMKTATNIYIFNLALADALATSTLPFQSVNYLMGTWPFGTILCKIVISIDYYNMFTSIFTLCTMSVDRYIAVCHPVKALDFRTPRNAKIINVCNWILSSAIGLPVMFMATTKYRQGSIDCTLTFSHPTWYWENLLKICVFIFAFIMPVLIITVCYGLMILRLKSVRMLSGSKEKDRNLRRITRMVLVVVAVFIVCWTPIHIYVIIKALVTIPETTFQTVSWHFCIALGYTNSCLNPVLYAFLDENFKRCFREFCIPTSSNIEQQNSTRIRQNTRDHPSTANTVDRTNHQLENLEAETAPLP
row,Compound,inhibition at 1 µM [%]
1,"CC1CCCN(c2oc(C(CC3CCC(C(c4ccc(F)cc4)N(C)C)CC3)N3CCN(Cc4ccccc4)CC3)nc2Cc2ccccc2)C1 (centres unmarked) [compound 106, [{4-[2-[4-benzyl-5-(3-methylpiperidin-1-yl)-oxazol-2-yl]-2-(4-benzyl-piperazin-1-yl)-ethyl]-cyclohexyl}-(4-fluorophenyl)-methyl]-dimethylamine]",61
2,"CC1CC(C)CN(c2oc(C(CC3CCC(C(c4cccs4)N(C)C)CC3)N3CCCCC3)nc2Cc2ccccc2)C1 (centres unmarked) [compound 107, [(4-{2-[4-benzyl-5-(3,5-dimethylpiperidin-1-yl)-oxazol-2-yl]-2-piperidin-1-yl-ethyl}-cyclohexyl)-thiophen-2-yl-methyl]-dimethylamine]",84
3,"CN(CCc1ccccc1)c1oc(C(CC2CCC(C(c3cccs3)N(C)C)CC2)N2CCCCC2)nc1Cc1ccccc1 (centres unmarked) [compound 108, (4-benzyl-2-{2-[4-(dimethylaminothiophen-2-yl-methyl)-cyclohexyl]-1-piperidin-1-yl-ethyl}-oxazol-5-yl)-methylphenethylamine]",88
4,"CCN(CC)c1oc(C(CC2CCC(C(c3cccs3)N(C)C)CC2)N2CCCCC2)nc1Cc1ccccc1 (centres unmarked) [compound 109, (4-benzyl-2-{2-[4-(dimethylaminothiophen-2-yl-methyl)-cyclohexyl]-1-piperidin-1-yl-ethyl}-oxazol-5-yl)-diethylamine]",98
5,"CN(C)C(c1cccs1)C1CCC(CC(c2nc(Cc3ccccc3)c(N3CCSCC3)o2)N2CCCCC2)CC1 (centres unmarked) [compound 110, ({4-[2-(4-benzyl-5-thiomorpholin-4-yl-oxazol-2-yl)-2-piperidin-1-yl-ethyl]-cyclohexyl}-thiophen-2-yl-methyl)-dimethylamine]",97
6,"CC1CCCN(c2oc(C(CC3CCC(C(c4cccs4)N(C)C)CC3)N3CCCCC3)nc2Cc2ccccc2)C1 (centres unmarked) [compound 111, [(4-{2-[4-benzyl-5-(3-methylpiperidin-1-yl)-oxazol-2-yl]-2-piperidin-1-yl-ethyl}-cyclohexyl)-thiophen-2-yl-methyl]-dimethylamine]",92
7,"CCN(CC)C(CC1CCC(C(c2cccs2)N(C)C)CC1)c1nc(Cc2ccccc2)c(N2CC(C)CC(C)C2)o1 (centres unmarked) [compound 112, {1-[4-benzyl-5-(3,5-dimethylpiperidin-1-yl)-oxazol-2-yl]-2-[4-(dimethylamino-thiophen-2-yl-methyl)-cyclohexyl]-ethyl}-diethylamine]",89
8,"CCN(CC)C(CC1CCC(C(c2cccs2)N(C)C)CC1)c1nc(Cc2ccccc2)c(N(C)CCc2ccccc2)o1 (centres unmarked) [compound 113, (4-benzyl-2-{1-diethylamino-2-[4-(dimethylaminothiophen-2-yl-methyl)-cyclohexyl]-ethyl}-oxazol-5-yl)-methylphenethylamine]",97
9,"CCN(CC)c1oc(C(CC2CCC(C(c3cccs3)N(C)C)CC2)N(CC)CC)nc1Cc1ccccc1 (centres unmarked) [compound 114, (4-benzyl-2-{1-diethylamino-2-[4-(dimethylaminothiophen-2-yl-methyl)-cyclohexyl]-ethyl}-oxazol-5-yl)-diethylamine]",94
10,"CCN(CC)C(CC1CCC(C(c2cccs2)N(C)C)CC1)c1nc(Cc2ccccc2)c(N2CCSCC2)o1 (centres unmarked) [compound 115, {1-(4-benzyl-5-thiomorpholin-4-yl-oxazol-2-yl)-2-[4-(dimethylamino-thiophen-2-yl-methyl)-cyclohexyl]-ethyl}-diethylamine]",93
11,"CCN(CC)C(CC1CCC(C(c2cccs2)N(C)C)CC1)c1nc(Cc2ccccc2)c(N2CCCC(C)C2)o1 (centres unmarked) [compound 116, {1-[4-benzyl-5-(3-methylpiperidin-1-yl)-oxazol-2-yl]-2-[4-(dimethylamino-thiophen-2-yl-methyl)-cyclohexyl]-ethyl}-diethylamine]",94
